The record followed here is patent publication US20220213086A1, “AZOLE COMPOUNDS AS IRAK INHIBITORS, PREPARATION METHODS AND MEDICINAL USES THEREOF” (Eternity Bioscience Inc., priority 2020, published 2022).

Test [1] has as its target T1, full length human IRAK4 protein (Homo sapiens, UniProt Q9NWZ3).
T1 construct: Purified full length human IRAK4 protein; purchased Signal Chem 1112-10G-125
T1 sequence (Q9NWZ3 1-460): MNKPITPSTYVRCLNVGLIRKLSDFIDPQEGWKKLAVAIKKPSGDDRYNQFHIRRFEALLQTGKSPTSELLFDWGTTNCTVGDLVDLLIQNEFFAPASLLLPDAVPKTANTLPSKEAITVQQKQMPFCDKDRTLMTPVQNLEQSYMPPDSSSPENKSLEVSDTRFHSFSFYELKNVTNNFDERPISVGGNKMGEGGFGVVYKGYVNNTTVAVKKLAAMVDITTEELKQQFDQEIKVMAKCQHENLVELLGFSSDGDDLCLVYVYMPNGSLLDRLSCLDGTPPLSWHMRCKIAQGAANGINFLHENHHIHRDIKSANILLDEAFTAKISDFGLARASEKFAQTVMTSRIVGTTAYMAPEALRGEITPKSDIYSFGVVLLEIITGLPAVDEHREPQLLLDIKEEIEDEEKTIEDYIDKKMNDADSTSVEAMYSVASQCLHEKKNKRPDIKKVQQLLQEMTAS
In words: IRAK4 biochemical assay (Promega ADP-Glo IRAK4 Kinase Enzyme System). Conditions: 3 nM enzyme, 2 μM MBP, 250 μM ATP, 60 min at room temperature. Here is the method:
For the routine compound screening, an IRAK4 kinase assay was performed as follows using Promega ADP-Glo IRAK4 Kinase Enzyme System (Promega, Cat #2198-AD). Purified full length human IRAK4 protein (Signal Chem; Cat #1112-10G-125) was diluted to a concentration 6 nM in assay buffer (25 mM MOPS, pH 7.2, 12.5 mM β-glycerol-phosphate, 25 mM MgCl2, 5 mM EGTA, 2 mM EDTA, 0.0025% Brij-35, add 0.25 mM DTT to Kinase Assay Buffer prior to use) containing IRAK4 inhibitor at 2× the final concentration in 0.4% DMSO. The reaction was performed in PerkinElmer Proxiplate-384 plus white plate (Fisher Scientific, Cat #50-905-2761) and started by the addition of an equal volume of the assay buffer containing 4 μM native swine myelin basic protein (MBP) and 500 μM ATP to achieve a final concentration of 3 nM enzyme, 2 μM MBP, 250 μM ATP, 1×compound, and 0.2% DMSO. The kinase reaction was allowed to run for 60 min at room temperature (25-27° C.), then 5 μL of ADP-Glo was added to the reaction in each well followed by 40 minutes-incubation at RT. To detect converted ATP, 10 μL Detection Buffer was added into each well and Incubate at RT in dark for 30 minutes. Finally, luminescence was read using Tecan with 1000 ms of integration time. The luminescent signal positively correlates with ADP amount and kinase activity. Data was analyzed by GraphPad Prism and IC50 was calculated using function log(inhibitor) vs. response—Variable slope (four parameters). Percentage of inhibition was calculated as below:
% inhibition=(1−(Reading(Sample)−Reading(Negative Control))/(Reading(Positive Control)−Reading(Negative Control)))×100%
The 0% inhibition value comes from the Reading of Positive Control wells having 0 nM compound. The 100% inhibition value comes from the Reading of Negative Control wells having no IRAK4 kinase.

In test [2] the test system is IRAK4 (TNFα in human peripheral blood mononuclear cells). In words: IRAK4 human PBMC TNFα cell based assay (AlphaLISA). Conditions: TNFα readout. Here is the method:
In this assay, serially diluted compounds were incubated with 1×10^4 human peripheral blood mononuclear cells (PBMCs) from STEMCELL (Cat #70025.1) per well of 384-well plate (Fisher Scientific; 50-905-2761) and cultured with TexMACS medium (Miltenyi, Cat #130-097-196), stimulated by R848 (0.5 μM) or IL-1β (10 ng/ml). Plates were covered with lids and incubated for 4 h (R848, Fisher Scientific, Cat #NC9801605) or 24 h (IL-1β, Fisher Scientific, Cat #ENRIL1BI) at 37° C. in a humidified tissue-culture incubator. After a brief centrifugation at 1000 rpm for 5 minutes, 5 μl of culture medium was used for the measurement of the TNFα amount using TNFα (human) AlphaLISA Detection Kit (PerkinElmer, Cat #AL208C) according to manufacturer's protocol. A biotinylated anti-TNFα antibody binds to the Streptavidin-coated Donor beads while another anti-TNFα antibody is conjugated to AlphaLISA Acceptor beads. In the presence of the TNFα, the beads come into close proximity. The excitation of the Donor beads causes the release of singlet oxygen molecules that triggers a cascade of energy transfer in the Acceptor beads, resulting in a sharp peak of light emission at 615 nm. AlphaLISA assay plates were read using PHERAstar. Percentage of inhibition was calculated as below:
% inhibition=(1−(Reading(Sample)−Reading(Negative Control))/(Reading(Positive Control)−Reading(Negative Control)))×100% […]

Like-named read-outs stand apart in the source and are kept apart here.

The IC50 is the concentration needed to halve the response being measured.

Regarding `COc1cc2c(OC[C@@H]3CCC(=O)N3)nsc2cc1C(N)=O` [Example 1, (S)-5-methoxy-3-((5-oxopyrrolidin-2-yl)methoxy)benzo[d]isothiazole-6-carboxamide], in test [1], the IC50 worked out at 240 nM and the “IRAK4 Biochemical Assay Max Inhibition (%)” value was 98.0%.

For the compound `CC[C@@H]1[C@H](F)C(=O)N[C@@H]1COc1nsc2cc(C(N)=O)c(OC)cc12` [Example 2], the IC50 in test [1] came to 14 nM; in test [2] (human PBMCs stimulated by IL-1β (10 ng/ml), 24 h, read-out: IRAK4 PBMC AlphaLISA IL-1β (IC50)) it was 26 nM; in test [2] (human PBMCs stimulated by R848 (0.5 μM), 4 h, read-out: IRAK4 PBMC AlphaLISA R848 (IC50)), 21 nM. In addition, the “IRAK4 Biochemical Assay Max Inhibition (%)” value in test [1] was determined as 93.0%.
